Positions count from the first letter of the chain named. Where a SMILES comes first, the peptide text is derived from it.
Legend:
[1] = target: T1, hTAS1R2 + hTAS1R3 L798I^7.36 (Homo sapiens, UniProt Q7RTX0+Q8TE23, L798I); assay: Calcium response (FLIPR), hTAS1R3 mutant coexpressed with hTAS1R2; format: cell-based; settings: variant L798I^7.36; for Emax: read-out: maximal signal (% of wt)
T1 construct: expressed in transfected cells; host or cells: HEK293T cells stably expressing G16Gust44
T1 sequence (Q8TE23 20-839): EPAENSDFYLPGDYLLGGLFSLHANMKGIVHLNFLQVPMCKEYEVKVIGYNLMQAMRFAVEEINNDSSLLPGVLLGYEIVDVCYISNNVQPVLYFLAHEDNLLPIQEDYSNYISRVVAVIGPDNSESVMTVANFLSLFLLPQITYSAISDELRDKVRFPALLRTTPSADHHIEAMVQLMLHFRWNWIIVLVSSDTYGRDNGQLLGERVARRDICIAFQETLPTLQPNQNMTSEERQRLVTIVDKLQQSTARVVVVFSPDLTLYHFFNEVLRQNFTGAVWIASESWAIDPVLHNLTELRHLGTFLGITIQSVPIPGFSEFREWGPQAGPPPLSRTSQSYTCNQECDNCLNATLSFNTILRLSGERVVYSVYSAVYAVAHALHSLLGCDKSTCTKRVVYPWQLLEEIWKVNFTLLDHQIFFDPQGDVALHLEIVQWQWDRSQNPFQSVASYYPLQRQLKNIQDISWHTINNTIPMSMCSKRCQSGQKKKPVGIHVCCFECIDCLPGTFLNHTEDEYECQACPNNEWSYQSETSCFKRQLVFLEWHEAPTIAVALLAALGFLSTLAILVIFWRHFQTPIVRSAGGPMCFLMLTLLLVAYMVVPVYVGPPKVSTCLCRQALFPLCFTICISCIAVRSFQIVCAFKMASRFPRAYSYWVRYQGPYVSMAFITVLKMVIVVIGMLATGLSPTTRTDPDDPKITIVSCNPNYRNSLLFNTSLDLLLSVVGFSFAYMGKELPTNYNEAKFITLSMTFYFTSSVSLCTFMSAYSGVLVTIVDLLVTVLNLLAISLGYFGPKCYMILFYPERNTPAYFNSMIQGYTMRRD
T1 sequence (Q7RTX0 21-852 L798I): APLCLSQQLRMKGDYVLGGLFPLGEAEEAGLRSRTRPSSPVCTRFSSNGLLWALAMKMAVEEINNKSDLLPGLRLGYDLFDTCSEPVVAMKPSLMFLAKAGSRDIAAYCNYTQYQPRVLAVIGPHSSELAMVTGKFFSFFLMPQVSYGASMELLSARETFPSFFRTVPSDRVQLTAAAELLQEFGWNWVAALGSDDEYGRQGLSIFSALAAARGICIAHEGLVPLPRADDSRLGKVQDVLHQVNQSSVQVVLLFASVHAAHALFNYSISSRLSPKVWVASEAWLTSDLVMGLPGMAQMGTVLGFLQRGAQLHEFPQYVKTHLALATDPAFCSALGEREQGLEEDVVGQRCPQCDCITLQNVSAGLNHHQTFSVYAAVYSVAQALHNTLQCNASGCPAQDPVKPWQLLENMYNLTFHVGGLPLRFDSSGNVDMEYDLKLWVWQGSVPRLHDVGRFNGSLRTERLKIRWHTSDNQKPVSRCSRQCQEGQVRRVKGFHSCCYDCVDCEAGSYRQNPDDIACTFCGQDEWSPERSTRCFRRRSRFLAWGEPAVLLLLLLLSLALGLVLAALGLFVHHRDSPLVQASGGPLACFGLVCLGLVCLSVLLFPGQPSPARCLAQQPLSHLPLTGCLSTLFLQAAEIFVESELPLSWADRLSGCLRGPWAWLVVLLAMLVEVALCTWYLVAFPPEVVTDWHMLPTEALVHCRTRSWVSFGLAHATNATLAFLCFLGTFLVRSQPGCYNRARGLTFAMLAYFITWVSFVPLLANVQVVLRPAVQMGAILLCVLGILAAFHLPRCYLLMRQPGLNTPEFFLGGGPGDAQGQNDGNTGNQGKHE
Procedure, shortened: (§1)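 Each mutant receptor pair was expressed transiently in G16Gust44-expressing HEK293T cells; stimuli dissolved in C1 solution triggered calcium responses, recorded by fluorometric imaging and scaled to baseline fluorescence (ΔF/F) after mock correction, from at least three experiments run in duplicate.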

[2] = target: T2, hTAS1R2 + hTAS1R3 R723A^5.36 (Homo sapiens, UniProt Q7RTX0+Q8TE23, R723A); assay: as above; format: cell-based; settings: variant R723A^5.36; for Emax: read-out: maximal signal (% of wt)
T2 construct: expressed in transfected cells; host or cells: HEK293T cells stably expressing G16Gust44
T2 sequence (Q8TE23 20-839): T1 sequence (Q8TE23 20-839)
T2 sequence (Q7RTX0 21-852 R723A): T1 sequence (Q7RTX0 21-852 L798I) with R703A, I778L
Procedure, shortened: as §1

| Structure (SMILES) | EC50 [1] [µM] | Emax [1] [%] | EC50 [2] [µM] | Emax [2] [%] |
| --- | --- | --- | --- | --- |
| COc1ccc(CCC(=O)c2c(O)cc(O[C@@H]3O[C@H](CO)[C@@H](O)[C@H](O)[C@H]3O[C@@H]3O[C@@H](C)[C@H](O)[C@@H](O)[C@H]3O)cc2O)cc1O [NHDC, neohesperidin dihydrochalcone] | 200 ± 200 | 66 ± 26 | 200 ± 100 | 69 ± 71 |
| COC(=O)[C@H](Cc1ccccc1)NC(=O)[C@@H](N)CC(=O)O [aspartame] (HELM PEPTIDE1{D.F.[CO[*:1]]}$$$$V2.0) | 900 ± 400 | 81 ± 5 | 1500 ± 500 | 68 ± 50 |
